Measured values published in US20260200939A1, “MOLECULAR GLUE DEGRADER COMPOUNDS AND USES THEREOF” (Novartis AG, priority 2022, published 2026).

Experiments:
[1] = biological target: T1, CDK4 (Homo sapiens, UniProt P11802); assay: RNF126 knockdown study of CDK4 degradation in C33A cells; format: cell-based
T1 construct: endogenous in cells; host or cells: C33A
Method: Proteins were resolved by SDS/PAGE and transferred to nitrocellulose membranes using the Trans-Blot Turbo transfer system (Bio-Rad). Membranes were blocked with 5% BSA in Tris-buffered saline containing Tween 20 (TBS-T) solution for 30 min at RT, washed in TBS-T, and probed with primary antibody diluted in recommended diluent per manufacturer overnight at 4° C. After 3 washes with TBS-T, the membranes were incubated in the dark with IR680- or IR800-conjugated secondary antibodies at 1:10,000 dilution in 5% BSA in TBS-T at RT for 1 h. After 3 additional washes with TBST, blots were visualized using an Odyssey Li-Cor fluorescent scanner. The membranes were stripped using ReBlot Plus Strong Antibody Stripping Solution (EMD Millipore) when additional primary antibody incubations were performed. Antibodies used in this study were CDK4 (Abcam ab108357), Vinculin (Abcam ab129002), GAPDH (Cell Signaling Technology 14C10), RNF126 (Santa Cruz Biotechnology sc-376005), BRD4 (Abcam ab128874), Beta Actin (Cell Signaling Technology 13E5), PDE5 (Abcam ab259945), AR-V7 (Abcam ab273500), c-Abl (Santa Cruz Biotechnology sc-23), SMARCA2 (Abcam ab240648), LRRK2 (Abcam ab133474), BTK (Cell Signaling Technology D3H5), Androgen Receptor (Abcam ab133273).
Short-hairpin oligonucleotides were used to knock down the expression of RNF126 in C33A cells. […]

[2] = biological target: T2, cysteine 32 (C32) on the RING-family E3 ubiquitin ligase RNF126 (Homo sapiens, UniProt Q9BV68); assay: isoTOP-ABPP chemoproteomic profiling in C33A cells; format: cell-based; conditions: C33A cells treated in situ
T2 construct: endogenous in cells; host or cells: C33A
Method: IsoTOP-ABPP studies were done as previously reported (Weerapana, E. et al. Nature 468, 790-795 (2010); Spradlin, J. N. et al. Nat. Chem. Biol. 15, 747-755 (2019); Grossman, E. A. et al. Cell Chem. Biol. 24, 1368-1376.e4 (2017)). All of the isoTOP-ABPP datasets were prepared as described below using the IA-alkyne probe. Cells were lysed by probe sonication in PBS and protein concentrations were measured by BCA assay. Cells were treated for 2 h with either DMSO vehicle or compound before cell collection and lysis. Proteomes were subsequently labeled with IA-alkyne labeling (200 μM) for 1 h at room temperature. CuAAC was used by sequential addition of tris(2-carboxyethyl)phosphine (1 mM, Strem, 15-7400), tris[(1-benzyl-1H-1,2,3-triazol-4-yl)methyl]amine (34 μM, Sigma, 678937), copper(II) sulfate (1 mM, Sigma, 451657) and biotin-linker-azide—the linker functionalized with a tobacco etch virus (TEV) protease recognition sequence as well as an isotopically light or heavy valine for treatment of control or treated proteome, respectively. After CuAAC, proteomes were precipitated by centrifugation at 6,500 g, washed in ice-cold methanol, combined in a 1:1 control:treated ratio, washed again, then denatured and resolubilized by heating in 1.2% SDS-PBS to 90° C. for 5 min. Insoluble components were precipitated by centrifugation at 6,500 g and soluble proteome was diluted in 5 ml 0.2% SDS-PBS. […]

[3] = biological target: T3, pure RNF126 protein (Homo sapiens, UniProt Q9BV68); assay: Mass spectrometry analysis of compound-labeled RNF126 tryptic digests; format: binding
T3 construct: FLAG (C); host or cells: HEK293T

[4] = biological target: T4, Recombinant RNF126 (Homo sapiens, UniProt Q9BV68); assay: RNF126 Binding Assay, gel-based ABPP
T4 construct: FLAG (C); host or cells: HEK293T
How it was run: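 FLAG-tagged human RNF126, expressed in HEK293T and purified on anti-FLAG resin, was pretreated with DMSO or covalent ligand for 30 min at 37 °C in PBS. IA-rhodamine was then added for 1 h at RT in the dark. Probe labelling was read by SDS-PAGE in-gel fluorescence.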

[5] = biological target: T5, c-ABL kinase (Homo sapiens, UniProt P00519); assay: c-ABL degradation, Western blotting; format: cell-based
T5 construct: endogenous in cells; host or cells: K562 (inferred)
Method: (§1) C33A cells were purchased from American Type Culture Collection (ATCC) and were cultured in Dulbecco's Modified Eagle Medium (DMEM) containing 10% (v/v) fetal bovine serum (FBS) and maintained at 37° C. with 5% CO2. 22RV1 cells were purchased from the ATCC and were cultured in RPMI-1640 Medium containing 10% (v/v) FBS and maintained at 37° C. with 5% CO2. HEK293T cells were obtained from the UC Berkeley Cell Culture Facility and were cultured in DMEM containing 10% (v/v) FBS and maintained at 37° C. with 5% CO2. K562 cells were obtained from the UC Berkeley Cell Culture Facility and were cultured in Iscove's Modified Dulbecco's Medium (IMDM) containing 10% (v/v) FBS and maintained at 37° C. with 5% CO2. MV-4-11 cells were obtained from the ATCC and were cultured in IMDM containing 10% (v/v) FBS and maintained at 37° C. with 5% CO2. A549 cells were obtained from the ATCC and were cultured in F-12K Medium containing 10% (v/v) FBS and maintained at 37° C. with 5% CO2. Mino cells were obtained from the ATCC and were cultured in RPMI-1640 Medium containing 10% (v/v) FBS and maintained at 37° C. with 5% CO2. […]
(§2) Cells were washed twice with cold PBS, scraped, and pelleted by centrifugation (700 g, 5 min, 4° C.). […] Proteome concentrations were determined using BCA assay and lysate was diluted to appropriate working concentrations. […]

[6] = biological target: T6, BCR-ABL (Homo sapiens, UniProt P00519); assay: BCR-ABL degradation, Western blotting; format: cell-based
T6 construct: BCR (N-terminal part of P11274, natural fusion partner); endogenous in cells; host or cells: K562 (inferred); the other entry of the earlier key: BCR (P11274, Breakpoint cluster region protein)
Method: as §1, §2

[7] = biological target: T7, PDE5 (Homo sapiens, UniProt O76074); assay: PDE5 degradation in HEK293T cells, Western blotting; format: cell-based
T7 construct: endogenous in cells; host or cells: HEK293T
Method: as §1, §2

[8] = biological target: T8, LRRK2 (Homo sapiens, UniProt Q5S007); assay: LRRK2 loss in A549 lung cancer cells, Western blotting; format: cell-based
T8 construct: endogenous in cells; host or cells: A549
Method: as §1, §2

T4 sequence (Q9BV68 whole entry): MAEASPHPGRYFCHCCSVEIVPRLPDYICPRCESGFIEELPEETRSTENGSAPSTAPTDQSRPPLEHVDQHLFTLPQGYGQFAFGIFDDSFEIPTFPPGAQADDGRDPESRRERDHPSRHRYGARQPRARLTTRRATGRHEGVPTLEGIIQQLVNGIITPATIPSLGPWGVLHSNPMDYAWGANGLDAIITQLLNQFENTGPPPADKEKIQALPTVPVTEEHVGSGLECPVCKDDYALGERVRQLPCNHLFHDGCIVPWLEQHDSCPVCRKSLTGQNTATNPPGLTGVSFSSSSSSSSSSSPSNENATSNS
T8 sequence (Q5S007 whole entry): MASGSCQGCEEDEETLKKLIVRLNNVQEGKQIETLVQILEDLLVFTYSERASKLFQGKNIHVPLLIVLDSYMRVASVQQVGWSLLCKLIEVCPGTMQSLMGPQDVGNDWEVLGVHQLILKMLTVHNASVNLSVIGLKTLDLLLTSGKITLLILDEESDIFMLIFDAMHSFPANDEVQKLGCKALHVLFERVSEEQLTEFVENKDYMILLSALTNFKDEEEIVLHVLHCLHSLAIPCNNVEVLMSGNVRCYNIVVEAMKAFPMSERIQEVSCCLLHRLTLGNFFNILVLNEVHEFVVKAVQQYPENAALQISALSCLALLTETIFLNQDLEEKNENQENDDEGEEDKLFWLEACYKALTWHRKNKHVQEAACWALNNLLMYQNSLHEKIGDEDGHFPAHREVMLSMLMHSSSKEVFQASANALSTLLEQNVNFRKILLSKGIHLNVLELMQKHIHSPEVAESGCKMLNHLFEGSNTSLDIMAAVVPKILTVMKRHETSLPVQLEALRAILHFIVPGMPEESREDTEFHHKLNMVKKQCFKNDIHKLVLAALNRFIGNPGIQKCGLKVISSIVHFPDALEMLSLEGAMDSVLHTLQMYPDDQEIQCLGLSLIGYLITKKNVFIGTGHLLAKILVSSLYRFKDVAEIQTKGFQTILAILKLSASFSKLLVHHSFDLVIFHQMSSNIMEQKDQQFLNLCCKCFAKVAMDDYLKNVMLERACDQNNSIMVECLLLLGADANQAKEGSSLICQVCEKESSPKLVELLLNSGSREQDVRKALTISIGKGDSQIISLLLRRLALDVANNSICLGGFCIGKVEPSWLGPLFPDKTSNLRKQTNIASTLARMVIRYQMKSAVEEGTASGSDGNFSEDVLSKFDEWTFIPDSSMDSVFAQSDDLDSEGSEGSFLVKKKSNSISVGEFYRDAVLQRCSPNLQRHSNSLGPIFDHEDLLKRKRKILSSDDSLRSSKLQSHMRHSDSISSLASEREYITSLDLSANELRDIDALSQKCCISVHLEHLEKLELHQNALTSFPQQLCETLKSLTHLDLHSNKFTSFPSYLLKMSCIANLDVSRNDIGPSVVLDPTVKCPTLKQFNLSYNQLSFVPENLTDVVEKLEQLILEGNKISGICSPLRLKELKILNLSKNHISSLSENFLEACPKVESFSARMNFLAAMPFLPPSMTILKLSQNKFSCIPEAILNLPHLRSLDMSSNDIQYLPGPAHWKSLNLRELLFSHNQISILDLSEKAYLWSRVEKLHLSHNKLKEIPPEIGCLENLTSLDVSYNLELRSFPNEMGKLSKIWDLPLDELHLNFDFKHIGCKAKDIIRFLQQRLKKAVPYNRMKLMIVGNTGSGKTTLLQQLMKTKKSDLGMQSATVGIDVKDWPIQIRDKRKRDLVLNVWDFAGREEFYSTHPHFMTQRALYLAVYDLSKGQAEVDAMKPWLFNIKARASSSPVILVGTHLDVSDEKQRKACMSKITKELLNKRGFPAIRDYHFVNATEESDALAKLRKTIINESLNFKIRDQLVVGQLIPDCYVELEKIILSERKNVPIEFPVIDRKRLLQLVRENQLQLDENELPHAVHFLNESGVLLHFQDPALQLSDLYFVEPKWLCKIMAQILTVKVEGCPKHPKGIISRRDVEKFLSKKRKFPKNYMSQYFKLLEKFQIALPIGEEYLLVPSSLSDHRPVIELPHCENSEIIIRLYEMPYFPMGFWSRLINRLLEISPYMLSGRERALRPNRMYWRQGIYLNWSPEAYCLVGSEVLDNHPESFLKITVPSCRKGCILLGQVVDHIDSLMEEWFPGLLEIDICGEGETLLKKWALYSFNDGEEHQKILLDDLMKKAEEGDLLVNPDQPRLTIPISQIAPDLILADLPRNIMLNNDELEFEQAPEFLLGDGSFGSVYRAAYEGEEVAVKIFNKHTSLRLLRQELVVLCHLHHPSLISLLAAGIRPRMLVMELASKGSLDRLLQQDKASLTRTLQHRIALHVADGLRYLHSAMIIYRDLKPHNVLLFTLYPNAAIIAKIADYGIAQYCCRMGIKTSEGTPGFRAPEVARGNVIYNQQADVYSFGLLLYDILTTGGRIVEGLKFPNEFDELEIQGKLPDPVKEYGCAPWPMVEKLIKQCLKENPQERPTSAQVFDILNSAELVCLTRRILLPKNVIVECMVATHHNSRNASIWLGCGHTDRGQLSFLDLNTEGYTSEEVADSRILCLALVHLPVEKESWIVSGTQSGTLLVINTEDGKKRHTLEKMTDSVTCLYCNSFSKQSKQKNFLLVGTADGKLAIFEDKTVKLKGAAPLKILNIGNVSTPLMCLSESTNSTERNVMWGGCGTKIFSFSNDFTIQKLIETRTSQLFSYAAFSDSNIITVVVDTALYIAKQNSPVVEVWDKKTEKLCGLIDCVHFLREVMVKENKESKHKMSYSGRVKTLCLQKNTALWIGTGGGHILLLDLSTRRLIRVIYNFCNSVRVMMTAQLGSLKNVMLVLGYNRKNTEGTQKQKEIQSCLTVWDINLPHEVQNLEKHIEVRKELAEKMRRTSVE
T3 sequence (Q9BV68 whole entry): as the sequence (Q9BV68 whole entry) above
T5 sequence (P00519 whole entry): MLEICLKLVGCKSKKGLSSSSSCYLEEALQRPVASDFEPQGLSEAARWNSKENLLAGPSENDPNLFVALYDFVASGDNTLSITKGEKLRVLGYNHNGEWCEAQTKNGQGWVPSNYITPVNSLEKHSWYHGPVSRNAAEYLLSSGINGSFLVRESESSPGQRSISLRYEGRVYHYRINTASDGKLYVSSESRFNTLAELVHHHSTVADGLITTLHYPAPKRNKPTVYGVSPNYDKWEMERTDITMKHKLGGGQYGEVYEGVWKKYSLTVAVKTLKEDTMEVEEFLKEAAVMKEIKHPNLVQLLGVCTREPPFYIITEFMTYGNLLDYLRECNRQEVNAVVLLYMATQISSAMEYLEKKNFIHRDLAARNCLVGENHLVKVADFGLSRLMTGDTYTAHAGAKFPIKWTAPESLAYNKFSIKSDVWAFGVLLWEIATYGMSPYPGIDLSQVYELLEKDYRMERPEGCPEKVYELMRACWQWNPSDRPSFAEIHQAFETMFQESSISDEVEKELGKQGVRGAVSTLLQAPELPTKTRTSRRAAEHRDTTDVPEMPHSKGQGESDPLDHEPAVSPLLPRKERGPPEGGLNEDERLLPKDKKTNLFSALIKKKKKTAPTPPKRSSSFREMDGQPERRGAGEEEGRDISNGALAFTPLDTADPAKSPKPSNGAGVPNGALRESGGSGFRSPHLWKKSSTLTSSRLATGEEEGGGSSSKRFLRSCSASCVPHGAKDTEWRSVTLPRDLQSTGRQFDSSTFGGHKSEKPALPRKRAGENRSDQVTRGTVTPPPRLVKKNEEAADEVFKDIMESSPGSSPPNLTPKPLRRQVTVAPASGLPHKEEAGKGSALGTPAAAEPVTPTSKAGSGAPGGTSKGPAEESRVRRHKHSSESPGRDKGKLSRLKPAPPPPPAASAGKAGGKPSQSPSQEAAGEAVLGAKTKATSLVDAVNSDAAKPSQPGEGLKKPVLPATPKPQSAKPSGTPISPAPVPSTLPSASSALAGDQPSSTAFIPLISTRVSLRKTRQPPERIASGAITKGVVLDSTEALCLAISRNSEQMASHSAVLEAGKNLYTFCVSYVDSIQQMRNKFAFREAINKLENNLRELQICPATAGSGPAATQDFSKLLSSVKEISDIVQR

## CN(C)C(=O)c1cc2cnc(Nc3ccc(N4CCN(C(=O)/C=C/c5ccc(C(F)(F)F)cc5)CC4)cn3)nc2n1C1CCCC1 [Compound 106]
[1]
  effect of RNF126 knockdown on compound-mediated CDK4 degradation: completely attenuated
[2]
  cysteine engaged across the proteome (isoTOP-ABPP): covalently binds to cysteine 32 (C32)
[3]
  adduct on RNF126 by mass spectrometry of tryptic digests: mass adduct of Compound 106 on pure RNF126 protein is observed
[4]
  binding to RNF126 (gel-based ABPP), in words: confirms the interaction of Compound 106 with RNF126

## COc1ccc(C(=O)/C=C/C(=O)N2CCN(c3cc(Nc4ncc(C(=O)Nc5c(C)cccc5Cl)s4)nc(C)n3)CC2)cc1 [Compound 126]
[5]
  degradation of c-ABL kinase, in words: degradation of both BCR-ABL and c-ABL kinase in a dose-responsive manner
[6]
  degradation of BCR-ABL, in words: degradation of both BCR-ABL and c-ABL kinase in a dose-responsive manner
[4]
  binding to RNF126 (gel-based ABPP), in words: potent binding

## CCCc1nn(C)c2c(=O)[nH]c(-c3cc(S(=O)(=O)N4CCN(C(=O)/C=C/C(=O)c5ccc(OC)cc5)CC4)ccc3OCC)nc12 [Compound 127]
[7]
  degradation of PDE5, in words: degradation of PDE5 in HEK293T cells in a dose-responsive and proteasome-dependent manner
[4]
  binding to RNF126 (gel-based ABPP), in words: potent binding

## CNc1nc(Nc2ccc(C(=O)N3CCN(C(=O)/C=C/C(=O)c4ccc(OC)cc4)CC3)cc2OC)ncc1Cl [Compound 129]
[8]
  loss of LRRK2, in words: loss of LRRK2 in A549 lung cancer cells in a dose-responsive manner
[4]
  binding to RNF126 (gel-based ABPP), in words: potent binding
